Reference: ChEMBL document CHEMBL3585332, “Antimalarial Isocyano and Isothiocyanato Sesquiterpenes with Tri- and Bicyclic Skeletons from the Nudibranch Phyllidia ocellata” (J Nat Prod, 2015)

How the values were obtained:
[1] = system: Plasmodium falciparum; test: Antimalarial activity against drug-resistant asynchronous Plasmodium falciparum Dd2 infected in erythrocytes assessed as parasite growth inhibition at 10 uM after 48 hrs by [3H]-hypoxanthine incorporation assay relative to control; assay type: functional; settings: read-out: GI
[2] = system: Plasmodium falciparum; test: Antimalarial activity against chloroquine-sensitive asynchronous Plasmodium falciparum 3D7 infected in erythrocytes assessed as parasite growth inhibition after 48 hrs by [3H]-hypoxanthine incorporation assay; assay type: functional, organism-based
[3] = system: Plasmodium falciparum; test: Antimalarial activity against drug-resistant asynchronous Plasmodium falciparum Dd2 infected in erythrocytes assessed as parasite growth inhibition after 48 hrs by [3H]-hypoxanthine incorporation assay; assay type: functional, organism-based
[4] = Selectivity ratio of IC50 for human NFF to IC50 for chloroquine-sensitive asynchronous Plasmodium falciparum 3D7
[5] = Selectivity ratio of IC50 for human NFF to IC50 for drug-resistant asynchronous Plasmodium falciparum Dd2

Row | Structure (SMILES) | inhibition of growth at 10 µM [1] [%] | IC50 [2] [nM] | IC50 [3] [nM] | Ratio IC50 [4] | Ratio IC50 [5]
1 | CC1(C)C=C(NC=O)[C@]23CCC[C@](C)(CC[C@@H]12)C3 | < 50 | > 10000 | – | – | –
2 | [C-]#[N+][C@@H]1CCC(C)=C[C@@H]2[C@@H](C(C)C)CC[C@]21C | 98.3 | 260 | 870 | 45 | 45
3 | [C-]#[N+][C@@H]1[C@H](C(C)C)CC[C@@H](C)[C@@]12C=C(C)CC2 [AXISONITRILE 3] | 98.3 | – | – | – | –
4 | [C-]#[N+][C@]1(C)[C@H](C)C[C@@H]2C[C@H](C)[C@H]3CC[C@](C)([N+]#[C-])[C@H]4CC[C@H]1[C@@H]2[C@H]34 [DIISOCYANOADOCIANE] | 98.3 | – | – | – | –
5 | CC1(C)C[C@@H]2[C@H]1CC[C@@]1(C)CCC[C@]2(N=C=S)C1 | < 50 | > 10000 | – | – | –
6 | [C-]#[N+][C@@H]1CC(C)(C)[C@@H]2CC[C@@]3(C)CCC[C@@]12C3 | 98.3 | 290 | 830 | 45 | 45
7 | [C-]#[N+][C@@H]1[C@H]2C(=C)CCC[C@]2(C)CC[C@H]1C(C)C | 98.3 | – | – | – | –
8 | [C-]#[N+]C1=CC(C)(C)[C@@H]2CC[C@@]3(C)CCC[C@@]12C3 | 98.3 | 300 | 360 | 45 | 45
